From patent US20080070867A1, “2-Imidazolone and 2-Imidazolidinone Heterocyclic Inhibitors of Tyrosine Phosphatases” (Metabasis Therapeutics, Inc., priority 2005, published 2008) come the findings set out here.

The IC50 is the concentration needed to halve the response being measured.

This test concerns the target T1, Human recombinant PTP-1B (Homo sapiens, UniProt P18031).
T1 construct: Human recombinant PTP-1B, containing amino acids 1-321, fused to GST enzyme; GST (glutathione S-transferase)
T1 sequence (P18031 1-321): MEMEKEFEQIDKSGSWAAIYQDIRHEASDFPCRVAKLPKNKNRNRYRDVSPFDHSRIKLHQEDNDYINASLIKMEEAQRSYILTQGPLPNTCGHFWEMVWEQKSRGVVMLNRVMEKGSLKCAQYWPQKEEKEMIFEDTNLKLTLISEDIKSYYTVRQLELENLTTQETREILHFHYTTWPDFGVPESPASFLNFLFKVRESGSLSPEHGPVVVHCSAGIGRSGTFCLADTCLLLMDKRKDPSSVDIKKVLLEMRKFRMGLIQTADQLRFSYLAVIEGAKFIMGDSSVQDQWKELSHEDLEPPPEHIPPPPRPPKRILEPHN
Nature of the test: Assay for PTP-1B Activity (pNPP substrate). The test is classed as biochemical. The following applies: human recombinant PTP-1B (1-321) GST fusion, 2 mM pNPP, pH 7.4, 30° C., 20 min; read-out: Activity Code (IC50 range). In outline:
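GST-fused human PTP-1B (aa 1-321) hydrolysed 2 mM pNPP in 50 mM HEPES pH 7.4, 100 mM NaCl, 2 mM EDTA, 3 mM DTT for 20 min at 30 °C, after a 2 min compound premix. K2CO3 stopped the reaction, with pNP read at 405 nm. Initial rate was plotted against inhibitor concentration.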
With `COc1cc(Cn2cc(-c3ccc(C(=O)O)cc3)n(Cc3ccc(C(F)(F)P(=O)(O)O)c(Br)c3)c2=O)cc(OC)c1` [Compound 34, 4-[3-[3-Bromo-4-(difluoro-phosphono-methyl)-benzyl]-1-(3,5-dimethoxy-benzyl)-2-oxo-2,3-dihydro-1H-imidazol-4-yl]-benzoic acid], the IC50 was 0.25 to 2.5 µM. For the molecule `CC(C)OC(=O)OC(C)OP(=O)(O)C(F)(F)c1ccc(Cn2c(-c3ccc(S(C)(=O)=O)cc3)cn(C)c2=O)cc1Br` (stereo not drawn) [Compound 70, ({2-Bromo-4-[5-(4-methanesulfonyl-phenyl)-3-methyl-2-oxo-2,3-dihydro-imidazol-1-ylmethyl]-phenyl}-difluoro-methyl)-phosphonic acid mono-(1-isopropoxy-carbonyloxy-ethyl) ester], the IC50 is above 25 µM. Consider `O=C(O)c1ccc(-c2cn(Cc3ccc(C(F)(F)P(=O)(O)O)c(Br)c3)c(=O)n2Cc2ccccc2)cc1` [Compound 68, 4-{3-Benzyl-1-[3-bromo-4-(difluoro-phosphono-methyl)-benzyl]-2-oxo-2,3-dihydro-1H-imidazol-4-yl}-benzoic acid], for which the half-maximal inhibitory concentration (IC50) lay in the range of 0.25 to 2.5 µM. For `CCOC(=O)n1cc(-c2ccc(C(=O)OC)cc2)n(Cc2ccc(C(F)(F)P(=O)(O)OCOC(=O)C(C)(C)C)c(Br)c2)c1=O` [Compound 66, 3-(3-Bromo-4-{[(2,2-dimethyl-propionyloxy-methoxy)-hydroxy-phosphoryl]-difluoro-methyl}-benzyl)-4-(4-methoxycarbonyl-phenyl)-2-oxo-2,3-dihydro-imidazole-1-carboxylic acid ethyl ester], the concentration for half-maximal inhibition (IC50) was above 25 µM. Take `CS(=O)(=O)c1ccc(-c2cn(C3CC3)c(=O)n2Cc2ccc(C(F)(F)P(=O)(O)O)c(Br)c2)cc1` [Compound 21, ({2-Bromo-4-[3-cyclopropyl-5-(4-methanesulfonyl-phenyl)-2-oxo-2,3-dihydro-imidazol-1-ylmethyl]-phenyl}-difluoro-methyl)-phosphonic acid]: the IC50 was 0.1 to 0.249 µM. Consider `COC(=O)c1ccc(Cn2c(=O)n(Cc3ccc(C(F)(F)P(=O)(O)O)c(Br)c3)c3ccccc32)cc1` [Compound 86, 4-{3-[3-Bromo-4-(difluoro-phosphono-methyl)-benzyl]-2-oxo-2,3-dihydro-benzoimidazol-1-ylmethyl}-benzoic acid methyl ester], for which the half-inhibitory concentration (IC50) was in the range of 0.25 to 2.5 µM. With `COC(=O)c1ccc(-c2cn(Cc3ccc(F)cc3)c(=O)n2Cc2ccc(C(F)(F)P(=O)(O)O)c(Br)c2)cc1` [Compound 11, 4-[3-[3-Bromo-4-(difluoro-phosphono-methyl)-benzyl]-1-(4-fluoro-benzyl)-2-oxo-2,3-dihydro-1H-imidazol-4-yl]-benzoic acid methyl ester], the half-inhibitory concentration (IC50) lay in the range of 0.1 to 0.249 µM. For `CC(C)(C)C(=O)OCOP(=O)(O)C(F)(F)c1ccc(Cn2c(-c3ccc(C#N)cc3)cn(Cc3ccccc3)c2=O)cc1Br` [Compound 56, 2,2-Dimethyl-propionic acid ({4-[3-benzyl-5-(4-cyano-phenyl)-2-oxo-2,3-dihydro-imidazol-1-ylmethyl]-2-bromo-phenyl}-difluoro-methyl)-hydroxy-phosphinoyloxymethyl ester], the 50% inhibitory concentration (IC50) lay within 2.5 to 25 µM. As for `COC(=O)c1ccc(-c2cn(Cc3ccc(C(F)(F)P(=O)(O)O)c(Br)c3)c(=O)n2Cc2ccccc2)cc1` [Compound 67, 4-{3-Benzyl-1-[3-bromo-4-(difluoro-phosphono-methyl)-benzyl]-2-oxo-2,3-dihydro-1H-imidazol-4-yl}-benzoic acid methyl ester], the IC50 was 0.25 to 2.5 µM.
